Test results taken from patent publication US6835382B2, “Ii peptide therapeutics to enhance antigen presentation” (University of Massachusetts, priority 1996, dated 2004).
Non-standard residues stand in square brackets, D forms with d. Cit = NC(=O)NCCC[C@H](N)C(=O)O

What was measured:
[1] = test system: murine E^k MHC class II allele; experiment: antigenic peptide prepulse assay, E^k allele (fixed APC prepulsed with PGCC81-104); format: cell-based; settings: for Activity in antigenic peptide prepulse assay, E^k (baseline = 1.0): prepulse 1.25 μM antigenic peptide; for T cell response relative to baseline without AE peptide (None = 1.0), E^k: Table 27, antigenic peptide prepulse 1.25 μM, AE101 series peptide 64 μM, HT-2 supernatant dilution 1:8; for Activity in antigenic peptide prepulse assay, E^k (baseline without AE peptide = 1.00): Table 19, prepulse 20 μM PGCC81-104
Method: (§1) In a second type of assay, the “peptide prepulse assay”, the antigenic peptide is incubated with paraformaldehyde-fixed APC for 6 h. The APC are washed and incubated for 24 h with the AE101 series homolog and the T cell hybridoma specific for the antigenic peptide. After that incubation, an aliquot of the culture supernatant is transferred to a second culture to measure the relative degree of T hybridoma stimulation, as reflected in the effect of released interleukins on the growth of an interleukin-dependent, indicator cell line, as described above.
(§2) The two above described assays measure different aspects of the molecular mechanism of the AE101 series of peptides. In the “simultaneous assay”, AE101 series peptides are thought to induce the release of endogenously bound peptides and to permit the binding of the second, specific antigenic peptide which is relatively abundant in the culture fluid. The AE101 series peptides enhance antigenic peptide-specific T cell responses in simultaneous assays. In the “peptide prepulse” assay, the specific antigenic peptide becomes bound to MHC class II molecules on the surface of the fixed APC during the 6 h prepulse incubation. The effect of the AE101 series homologs is then thought to release that antigenic peptide, resulting in an apparent suppression of the immune response.
(§3) The AE101 series peptides are thought to contact the MHC class II molecules at a discrete site outside the antigenic peptide-binding groove. AE101 peptide binding to this “Ii-KEY” site is thought to induce a conformational change in the MHC class II molecules accelerating the dissociation of previously bound antigenic peptide. […] The AE101 series peptides thus inhibit antigenic peptide-specific T cell responses in the “peptide prepulse” assays.
(§4) Antigenic peptide-specific T cell activation was measured by the following procedure. Mitomycin C-treated A20 cells (A^dE^d) or CH27 cells APC (A^kE^k) were generated by incubating 5×10^6 cells/mL for 20 min at 37° C. with 0.025 mg/mL of mitomycin C (Sigma) in Dulbecco's Modified Eaglel's Medium (DMEM)/10 mM N-2(hydroxyethylpiperazine-N″[2-ethanesulfonic acid] (HEPES), followed by two washes with four volumes of DMEM-5% fetal calf serum (FCS), 10 mM HEPES. Fixed APC were generated by treating 1×10^6 cells/mL for 5 min with 0.5% paraformaldehyde in PBS (pH 7.2), followed by two washes with four volumes of DMEM-10% FCS, 10 mM HEPES. T cell hybridomas were irradiated 2200 rads before each assay.
(§5) The “peptide prepulse assay” was carried out under essentially the same conditions as described for the “simultaneous assay” with the following modifications. Fixed APC were first incubated for 6 h at 1×10^6 cells/mL in complete DMEM-5% FCS in 24-well microculture plates (1 mL/well) with antigenic peptide, followed by four washes with 10 volumes of DMEM-5% FCS. The cells were then exposed to varying concentrations of AE101 series peptide (64 μM, 16 μM, 4 μM, and 1 μM) for 24 h in the presence of the T cell hybridoma specific to the antigenic peptide. Interleukin release from these cultures was measured by proliferation of HT-2 cells to interleukins in supernatants transferred from the primary culture. Generally, a single dose of 64 μM of each AE101 series peptide was used. The baseline T cell response was measured by culturing T hybridoma cells with the antigenic peptide-prepulsed APC in the absence of AE101 series peptides.
Table 19: Activities of C-terminal truncation analogs of AE101 in an antigenic peptide prepulse assay. […] Paraformaldehyde-treated APC (fixed APC) expressing MHC class II molecules were incubated with antigenic peptide for 6 h (HEL106-116 for E^d and PGCC81-104 for E^k). After this incubation, the prepulsed APC were washed and cultured with T hybridoma cells and AE101 series peptides. The antigenic peptide concentration during the prepulse was 12 μM for Ed and 20 μM for E^k. The AE101 series peptide concentrations were 64 μM for E^d and 16 μM for E^k. […]

[2] = target: T1, murine E^d MHC class II allele (Mus musculus, UniProt P01904+P01915); experiment: antigenic peptide prepulse assay, E^d allele (fixed APC prepulsed with HEL106-116); format: cell-based; design: The A20 and CH27 B cell lymphoma lines express H-2^d and H-2^k alleles, respectively; endogenous in cells; host or cells: A20 B cell lymphoma (mitomycin C-treated or paraformaldehyde-fixed); settings: for Activity in antigenic peptide prepulse assay, E^d (baseline = 1.00) / Activity in antigenic peptide prepulse assay, E^d (baseline = 1.0) / Activity in antigenic peptide prepulse assay, E^d (baseline without AE peptide = 1.00): AE peptide 64 μM; for T cell response relative to baseline without AE peptide (None = 1.0), E^d: Table 27, antigenic peptide prepulse 24 μM, AE101 series peptide 64 μM, HT-2 supernatant dilution 1:8; for Activity in antigenic peptide prepulse assay, E^d (baseline without AE peptide = 1.00): Table 19, prepulse 12 μM HEL106-116
T1 sequence (P01904 26-255): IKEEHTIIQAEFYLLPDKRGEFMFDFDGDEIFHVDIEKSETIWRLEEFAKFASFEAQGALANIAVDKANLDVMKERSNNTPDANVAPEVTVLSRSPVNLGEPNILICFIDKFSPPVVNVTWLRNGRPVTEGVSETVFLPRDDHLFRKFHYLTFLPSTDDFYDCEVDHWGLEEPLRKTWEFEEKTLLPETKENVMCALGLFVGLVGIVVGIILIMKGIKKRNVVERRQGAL
T1 sequence (P01915 27-264 limits assumed): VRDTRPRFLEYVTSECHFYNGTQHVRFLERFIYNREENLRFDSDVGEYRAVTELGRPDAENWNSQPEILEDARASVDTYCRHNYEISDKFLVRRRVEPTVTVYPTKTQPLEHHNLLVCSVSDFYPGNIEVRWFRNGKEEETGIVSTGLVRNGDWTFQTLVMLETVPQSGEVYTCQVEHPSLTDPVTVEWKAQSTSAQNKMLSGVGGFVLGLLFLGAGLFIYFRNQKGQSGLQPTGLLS
Method: as §1, §2, §3, §4, §5
[…] […] Paraformaldehyde-treated APC (fixed APC) expressing MHC class II molecules were incubated with antigenic peptide for 6 h (HEL106-116 for E^d and PGCC81-104 for E^k). After this incubation, the prepulsed APC were washed and cultured with T hybridoma cells and AE101 series peptides. […] The AE101 series peptide concentrations were 64 μM for E^d and 16 μM for E^k. The dilutions of supernatant taken into the HT-2 cell assay were 1:4 for Ed and 1:2 for E^k.

[3] = Table 24, AE peptide 64 μM, prepulse 0.625 μM antigenic peptide, supernatant 1:8
[4] = Table 25, AE peptide 64 μM, prepulse 2.5 μM antigenic peptide, supernatant 1:10
[5] = Table 26, AE peptide 64 μM, supernatant 1:8
[6] = Table 28, AE peptide 64 μM, supernatant 1:4
[7] = Table 24, prepulse 24 μM antigenic peptide, supernatant 1:4
[8] = Table 25, prepulse 24 μM antigenic peptide, supernatant 1:4
[9] = Table 26, prepulse 24 μM antigenic peptide, supernatant 1:2
[10] = Table 28, prepulse 24 μM antigenic peptide, supernatant 1:4
[11] = Table 22, AE peptide 16 μM, prepulse 20 μM antigenic peptide, supernatant 1:2
[12] = Table 22, prepulse 6 μM antigenic peptide, supernatant 1:8
[13] = AE peptide 16 μM, supernatant 1:2

Row | Substance | Activity in antigenic peptide prepulse assay, E^k (baseline = 1.00) [1, 3] | Activity in antigenic peptide prepulse assay, E^k (baseline = 1.00) [1, 4] | Activity in antigenic peptide prepulse assay, E^k (baseline = 1.0) [1, 5] | Activity in antigenic peptide prepulse assay, E^d (baseline = 1.00) [2, 7] | Activity in antigenic peptide prepulse assay, E^d (baseline = 1.00) [2, 8] | Activity in antigenic peptide prepulse assay, E^d (baseline = 1.0) [2, 9] | Activity in antigenic peptide prepulse assay, E^k (baseline = 1.00) [1, 11] | Activity in antigenic peptide prepulse assay, E^d (baseline = 1.00) [2, 12] | other results
1 | Ac-LRMK Y PK-NH2 (Ac-LRMKYPK-NH2; not fully specified; printed as Ac-LRMK Y PK-NH2) [AE235] | 0.80 | 0.76 | 0.60 | 0.30 | 0.25 | 0.23 | – | – | T cell response relative to baseline without AE peptide (None = 1.0), E^k [1]: 0.83; Activity in antigenic peptide prepulse assay, E^k (baseline = 1.0) [1, 6]: 0.80; T cell response relative to baseline without AE peptide (None = 1.0), E^d [2]: 0.40; Activity in antigenic peptide prepulse assay, E^d (baseline = 1.0) [2, 10]: 0.30
2 | Ac-LRMK l PK-NH2 [AE164] | 0.67 | – | – | 0.59 | – | – | 0.21 | 0.37 | –
3 | Ac-LRMKL p K-NH2 [AE165] | – | – | – | – | – | – | 0.22 | 0.25 | –
4 | Ac-LRMKLP F-NH2 (Ac-LRMKLPF-NH2) [AE248] | – | 0.98 | – | – | 0.63 | – | – | – | –
5 | Ac-LRMKLP N-NH2 (Ac-LRMKLPN-NH2) [AE246] | – | – | 0.98 | – | – | 0.69 | – | – | –
6 | Ac-LRMKLP k-NH2 [AE166] | 0.83 | – | – | 0.65 | – | – | 0.15 | 0.11 | –
7 | Ac-LRMKLPK-NH2 [AE114] | 0.78 | 0.79 | 0.98 | 0.41 | 0.31 | 0.28 | 0.15 | 0.02 | Activity in antigenic peptide prepulse assay, E^k (baseline = 1) ([1]; Table 23, as printed: antigenic peptide prepulse 64 μM, AE peptide 1:8 μM, supernatant 1:2): 0.78; T cell response relative to baseline without AE peptide (None = 1.0), E^k [1]: 0.69; Activity in antigenic peptide prepulse assay, E^k (baseline = 1.0) [1, 6]: 0.78; Activity in antigenic peptide prepulse assay, E^d (baseline = 1) ([2]; Table 23, as printed: antigenic peptide prepulse 64 μM, AE peptide 1:4 μM, supernatant 1:8): 0.41; T cell response relative to baseline without AE peptide (None = 1.0), E^d [2]: 0.32; Activity in antigenic peptide prepulse assay, E^d (baseline = 1.0) [2, 10]: 0.41
8 | Ac-LRMKLPKPPK-NH2 [AE168] | – | – | – | – | – | – | – | – | Activity in antigenic peptide prepulse assay, E^k (baseline without AE peptide = 1.00) [1, 13]: 0.01; Activity in antigenic peptide prepulse assay, E^d (baseline without AE peptide = 1.00) ([2]; supernatant 1:4): 0.10
9 | Ac-LRMKLPKPPP-NH2 [AE167] | – | – | – | – | – | – | – | – | Activity in antigenic peptide prepulse assay, E^k (baseline without AE peptide = 1.00) [1, 13]: 0.01; Activity in antigenic peptide prepulse assay, E^d (baseline without AE peptide = 1.00) ([2]; supernatant 1:4): 0.23
10 | Ac-LRMKLP[Cit]-NH2 [AE241] | – | – | 0.99 | – | – | 0.70 | – | – | –
11 | Ac-LRNKNPF-NH2 [AE348] | – | 0.72 | – | – | 0.39 | – | – | – | –
12 | Ac-LRNKNPK-NH2 [AE349] | – | 0.81 | – | – | 0.69 | – | – | – | –
